According to patent publication US11542508B2, “Isolated polynucleotides and polypeptides and methods of using same for expressing an expression product of interest” (priority 2016, dated 2023):
Entries after “also recorded” stand apart in the source; their conditions may differ.

What was measured:
phi3T = assay: Growth dynamics of phage-infected cultures (phi3T infection of B. subtilis 168); assay type: cell-based; details: B. subtilis 168 infected by phi3T at MOI=0.1, LB supplemented with synthesized peptide
Description: Specifically, overnight cultures of B. subtilis strain 168 were diluted 1:50 in LB media supplemented with 0.1 mM MnCl2 and 5 mM MgCl2, and incubated at 37° C. with shaking until reaching optical density (O.D) 600 nm=0.5. Phages (phi29, phi105, rho14 or phi3T) were added to the bacterial culture at MOI=1 and incubated for 3 hours. The media were centrifuged at 4000 rpm for 10 minutes at 4° C. and the supernatant was filtered with 0.2 μm filer (GE Healthcare Life Sciences, Whatman, CAT #10462200). Phages and large molecules were further filtered out from the media by using Amicon Ultra centrifugal filters at a cutoff of 3,000 NMWL (3 kDa) (Milipore, CAT #UFC900324). A plaque assay was performed in order to verify that no phages were left in the medium.
7.5 mg (per reaction) of Proteinase K-Agarose from Tritirachium album (Sigma, CAT #P9290) were washed twice with 750 μl of sterile water and then resuspended with 750 μl of LB supplemented with 0.1 mM MnCl2 and 5 mM MgCl2. Following, the tubes were centrifuged again and the supernatant was discarded. 1.5 ml of phi3T-derived conditioned medium or control medium was added to a tube containing the washed proteinase K. The media were incubated for 2 hours at 37° C. with the proteinase K. The media were centrifuged and the supernatants were collected for the infection assay.
(§1) Overnight cultures of bacteria were diluted 1:100 in LB media and incubated at 37° C. with shaking until reaching O.D 600 nm=0.1. The bacterial culture was centrifuged at 4000 rpm for 10 minutes at room temperature. The supernatant was discarded and the pellet was resuspended in LB medium supplemented with 0.1 mM MnCl2 and 5 mM MgCl2 at 10% of the initial volume. The concentrated bacterial culture was added to conditioned medium or medium supplemented with synthesized arbitrium peptide in a ratio of 1:9 (bacteria to medium) and incubated for 1 hour at room temperature. Following, the culture was infected with phages at MOI=0.1. Optical density measurements at a wavelength of 600 nm were taken using a TECAN Infinite 200 plate reader in a 96-wells plate.

spBeta = assay: Growth dynamics of phage-infected cultures (spBeta infection of B. subtilis BEST7003); assay type: cell-based; details: B. subtilis BEST7003 infected by spBeta at MOI=0.1, LB supplemented with synthesized peptide
Description: as §1

phi3T AimR receptor = molecular target: T1, phi3T AimR receptor (Bacillus phage phi3T, UniProt P0DOE3); assay type: binding; details: AimR 200 nM, peptide 9-4000 nM
T1 construct: made in house; host or cells: E. coli BL21(DE3), pET28a
T1 sequence (P0DOE3 whole entry, looked up): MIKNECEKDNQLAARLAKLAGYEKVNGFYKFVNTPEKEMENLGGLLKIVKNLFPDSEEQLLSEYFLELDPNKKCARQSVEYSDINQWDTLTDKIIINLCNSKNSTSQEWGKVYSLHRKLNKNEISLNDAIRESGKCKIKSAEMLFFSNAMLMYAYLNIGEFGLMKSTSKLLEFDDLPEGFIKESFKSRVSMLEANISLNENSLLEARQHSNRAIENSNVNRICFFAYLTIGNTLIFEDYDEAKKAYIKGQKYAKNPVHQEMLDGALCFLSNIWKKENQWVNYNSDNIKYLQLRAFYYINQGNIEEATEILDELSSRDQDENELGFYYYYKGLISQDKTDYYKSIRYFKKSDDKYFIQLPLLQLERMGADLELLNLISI
Description: Two-step purified 6×His-tagged AimR stored in Tris/NaCl buffer (50 mM Tris pH 8.0, 150 mM NaCl, 2 mM TCEP) at −80° C. was thawed on ice and centrifuged at 21,000 g for 10 minutes at 4° C. prior to analysis. Peptides [SAIRGA (SEQ ID NO: 269) and GMPRGA (SEQ ID NO: 271)] were solubilized in 50 mM Tris-HCl pH 8.0, 150 mM NaCl to a final concentration of 100 μM. AimR was diluted to 200 nM and was incubated with 16 different peptide concentrations varying between 9-4000 nM, which were prepared in Tris/NaCl buffer containing 0.1% [v/v] Pluronic acid (NanoTemper). Roughly 3 μl were loaded into NT.LabelFree Zero-Background Premium Coated Capillaries (NanoTemper) and inserted into a Monolith NT.LabelFree device (NanoTemper). MST experiments were performed at 60% MST power (infra-red laser) and 20% LED power at 23° C. using the Monolith NT.LabelFree instrument (Nanotemper). Ratios between normalized initial fluorescence and post-temperature-jump and thermophoresis were calculated and averaged from 3 independent runs (runs were incubated for 20 minutes at room temperature before the measurement). A plot of fluorescence ratios versus peptide concentration was used to assess the binding capacity of the phage protein and its cognate peptide ligand.

AimR = molecular target: T2, AimR (Bacillus phage phi3T, UniProt P0DOE3); assay: Analytical gel filtration of purified AimR (oligomeric state); details: AimR:SAIRGA 1:2, AimR:GMPRGA 1:1 molar ratio
T2 construct: made in house; host or cells: E. coli BL21(DE3), pET28a
T2 sequence (P0DOE3 whole entry, looked up): T1 sequence (P0DOE3 whole entry, looked up)
Description: Following, AimR was expressed in E. coli BL21(DE3) cells with a C-terminal 6× His-tag. Expression was performed at 15° C. for about ˜18 hours using 200 μM IPTG (Isopropyl β-D-1-thiogalactopyranoside) as an inducer. The cells pellet was resuspended in lysis buffer [50 mM Tris pH 8, 0.3M NaCl, 20 mM Imidazole, 2 mM DTT, 0.2 mg/ml Lysozyme, 1 μg/ml DNAse, protease inhibitor cocktail (Calbiochem)], disrupted by a cell disrupter at 4° C. and clarified at 15,000 g for 30 minutes. The clarified lysate was loaded onto a HisTrap_FF_5 ml column (GE Healthcare) and washed with buffer containing 50 mM Tris pH 8, 0.3 M NaCl, 20 mM imidazole and 2 mM DTT. AimR was eluted from the column in one step with the same buffer containing 0.5 M imidazole. Fractions containing AimR were pooled and injected to a size exclusion column (HiLoad_16/60_Superdex_200_prepgrade,GE_Healthcare) equilibrated with 20 mM Tris pH 8, 0.3 M NaCl, 2 mM TCEP. Fractions containing pure AimR were pooled and flash frozen in aliquots using liquid nitrogen.
Pure AimR was injected to an analytical gel filtration column (Superdex_200_Increase_10/30 GL, GE Healthcare) equilibrated with buffer containing 20 mM Tris pH 8, 0.3 M NaCl, 2 mM TCEP. […]

Substance | effect on the phage infection dynamics (culture lysis, growth curve) (phi3T) | effect on lysogeny / infection dynamics of spBeta (spBeta) | specific binding to the phi3T AimR receptor (MST) (phi3T AimR receptor) | AimR oligomeric state (migration in gel filtration column) (AimR)
AIRGA: shorter, 5 amino acids version of the SAIRGA peptide | neither observed; also recorded: do not guide lysogeny |  |  | 
GMPRGA: predicted mature AimP-derived arbitrium peptide of spBeta | did not affect the lysogeny profile of phi3T | promoted lysogeny of spBeta | did not show specific binding | did not lead to a change in the AimR oligomeric state
PhrC: a known quorum sensing peptide of B. subtilis (ERGMT) | neither observed |  |  | 
SAIRG: shorter, 5 amino acids version of the SAIRGA peptide | neither observed; also recorded: do not guide lysogeny |  |  | 
